# From patent US20230061736A1, “GPR119 AGONISTS” (Kallyope, Inc., priority 2019, published 2023)
# Target: T1, human GPR119 (hGPR119) (Homo sapiens, UniProt Q8TDV5)
# T1 construct: expressed in transfected cells
# T1 sequence (Q8TDV5 1-335): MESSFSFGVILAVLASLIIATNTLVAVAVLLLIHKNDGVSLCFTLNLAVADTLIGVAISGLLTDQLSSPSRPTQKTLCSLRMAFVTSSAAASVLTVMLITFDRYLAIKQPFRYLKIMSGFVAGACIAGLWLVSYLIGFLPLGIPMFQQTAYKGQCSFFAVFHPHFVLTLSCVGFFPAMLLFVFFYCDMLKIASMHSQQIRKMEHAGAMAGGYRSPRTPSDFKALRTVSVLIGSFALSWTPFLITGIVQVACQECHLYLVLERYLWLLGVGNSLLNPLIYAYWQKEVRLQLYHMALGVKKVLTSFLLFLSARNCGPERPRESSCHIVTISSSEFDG
# Assay: cAMP accumulation assay (cAMP Gs dynamic HTRF kit)
# Format: cell-based
# Settings: CHO-K1 cells stably expressing hGPR119, 4-parameter fit; for Emax: 1 h, % activity normalized to Max/Min controls; for EC50: cAMP accumulation
# In short: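 CHO-K1 cells stably expressing hGPR119, used as assay-ready frozen stocks at ~10,000 cells/well, exposed to compound dose-response in stimulation buffer with Tween 80 for 60 min at 37° C. cAMP read by HTRF (665/620 nm ratio), normalised to Max/Min controls; EC50 and Max activity from 4-parameter fit.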
SMILES,Emax,EC50
"O=C(Cc1ccc(OCCCCC2CCN(c3ncc(Cl)cn3)CC2)cc1F)N1CC(CNC[C@H](O)[C@@H](O)[C@H](O)[C@H](O)CO)C1 [Example 54, 2-[4-[4-[1-(5-chloropyrimidin-2-yl)-4-piperidyl]butoxy]-2-fluoro-phenyl]-1-[3-[[[(2S,3R,4R,5R)-2,3,4,5,6-pentahydroxyhexyl]amino]methyl]azetidin-1-yl]ethanone]",≥ 130%,100 to 1000 nM
"O=C(Cc1c(F)cc(OCCCCC2CCN(c3ncc(Cl)cn3)CC2)cc1F)N1CC(CNC[C@H](O)[C@@H](O)[C@H](O)[C@H](O)CO)C1 [Example 55, 2-(4-(4-(1-(5-chloropyrimidin-2-yl)piperidin-4-yl)butoxy)-2,6-difluorophenyl)-1-(3-((((2S,3R,4R,5R)-2,3,4,5,6-pentahydroxyhexyl)amino)methyl)azetidin-1-yl)ethan-1-one]",≥ 130%,100 to 1000 nM
"O=C(Cc1ccc(OCCCC2CCN(c3ncc(Cl)cn3)CC2)cc1F)N1CC(CCNC(CO)(CO)CO)C1 [Example 59, 2-(4-(3-(1-(5-chloropyrimidin-2-yl)piperidin-4-yl)propoxy)-2-fluorophenyl)-1-(3-(2-((1,3-dihydroxy-2-(hydroxymethyl)propan-2-yl)amino)ethyl)azetidin-1-yl)ethan-1-one]",100 to 130%,100 to 1000 nM
"O=C(NCCNCCC1CN(C(=O)Cc2ccc(OCCCC3CCN(c4ncc(Cl)cn4)CC3)cc2F)C1)NC(CO)(CO)CO [Example 60, 1-(2-((2-(1-(2-(4-(3-(1-(5-chloropyrimidin-2-yl)piperidin-4-yl)propoxy)-2-fluorophenyl)acetyl)azetidin-3-yl)ethyl)amino)ethyl)-3-(1,3-dihydroxy-2-(hydroxymethyl)propan-2-yl)urea]",≥ 130%,100 to 1000 nM
O=C(Cc1ccc(OCCCC2CCN(c3ncc(Cl)cn3)CC2)cc1F)N1CC(CCNC[C@H](O)[C@@H](O)[C@H](O)[C@H](O)CO)C1 [Example 61],100 to 130%,100 to 1000 nM
"CCc1cnc(N2CCC(CCCOc3ccc(CC(=O)N4CC(CNCC(CO)CO)C4)c(F)c3)CC2)nc1 [Example 62, 2-(4-(3-(1-(5-ethylpyrimidin-2-yl)piperidin-4-yl)propoxy)-2-fluorophenyl)-1-(3-(((3-hydroxy-2-(hydroxymethyl)propyl)amino)methyl)azetidin-1-yl)ethan-1-one]",≥ 130%,100 to 1000 nM
"CCCc1cnc(N2CCC(CCCOc3ccc(CC(=O)N4CC(CNCCNC(=O)NC(CO)(CO)CO)C4)c(F)c3)CC2)nc1 [Example 73, 1-(1,3-dihydroxy-2-(hydroxymethyl)propan-2-yl)-3-(2-(((1-(2-(2-fluoro-4-(3-(1-(5-propylpyrimidin-2-yl)piperidin-4-yl)propoxy)phenyl)acetyl)azetidin-3-yl)methyl)amino)ethyl)urea]",100 to 130%,100 to 1000 nM
"CCCc1cnc(N2CCC(CCCOc3ccc(CC(=O)N4CC(CNC[C@H](O)[C@@H](O)[C@H](O)[C@H](O)CO)C4)c(F)c3)CC2)nc1 [Example 74, 2-(2-fluoro-4-(3-(1-(5-propylpyrimidin-2-yl)piperidin-4-yl)propoxy)phenyl)-1-(3-((((2S,3R,4R,5R)-2,3,4,5,6-pentahydroxyhexyl)amino)methyl)azetidin-1-yl)ethan-1-one]",≥ 130%,100 to 1000 nM
"CCCc1cnc(N2CCC(CCCOc3cc(F)c(CC(=O)N4CC(CNCCNC(=O)NC(CO)(CO)CO)C4)c(F)c3)CC2)nc1 [Example 77, 1-(2-(((1-(2-(2,6-difluoro-4-(3-(1-(5-propylpyrimidin-2-yl)piperidin-4-yl)propoxy)phenyl)acetyl)azetidin-3-yl)methyl)amino)ethyl)-3-(1,3-dihydroxy-2-(hydroxymethyl)propan-2-yl)urea]",≥ 130%,100 to 1000 nM

# Second part, the compound after the results:
Emax,EC50,SMILES
100 to 130%,≤ 100 nM,"O=C(Cc1ccc(OCCCC2CCN(c3ncc(Cl)cn3)CC2)cc1F)N1CC(CCNC(CO)CO)C1 [Example 56, 2-(4-(3-(1-(5-chloropyrimidin-2-yl)piperidin-4-yl)propoxy)-2-fluorophenyl)-1-(3-(2-((1,3-dihydroxypropan-2-yl)amino)ethyl)azetidin-1-yl)ethan-1-one]"
100 to 130%,≤ 100 nM,"O=C(Cc1ccc(OCCCC2CCN(c3ncc(Cl)cn3)CC2)cc1F)N1CC(CCNCC(CO)CO)C1 [Example 57, 2-(4-(3-(1-(5-chloropyrimidin-2-yl)piperidin-4-yl)propoxy)-2-fluorophenyl)-1-(3-(2-((3-hydroxy-2-(hydroxymethyl)propyl)amino)ethyl)azetidin-1-yl)ethan-1-one]"
≥ 130%,100 to 1000 nM,"O=C(Cc1ccc(OCCCC2CCN(c3ncc(Cl)cn3)CC2)cc1F)N1CC(CCNCC(O)(CO)CO)C1 [Example 58, 2-(4-(3-(1-(5-chloropyrimidin-2-yl)piperidin-4-yl)propoxy)-2-fluorophenyl)-1-(3-(2-((2,3-dihydroxy-2-(hydroxymethyl)propyl)amino)ethyl)azetidin-1-yl)ethan-1-one]"
≥ 130%,≤ 100 nM,"CCc1cnc(N2CCC(CCCOc3ccc(CC(=O)N4CC(CNCC(O)(CO)CO)C4)c(F)c3)CC2)nc1 [Example 63, 1-(3-(((2,3-dihydroxy-2-(hydroxymethyl)propyl)amino)methyl)azetidin-1-yl)-2-(4-(3-(1-(5-ethylpyrimidin-2-yl)piperidin-4-yl)propoxy)-2-fluorophenyl)ethan-1-one]"
≥ 130%,≤ 100 nM,"CCc1cnc(N2CCC(CCCOc3ccc(CC(=O)N4CC(CNC(CO)(CO)CO)C4)c(F)c3)CC2)nc1 [Example 64, 1-(3-(((1,3-dihydroxy-2-(hydroxymethyl)propan-2-yl)amino)methyl)azetidin-1-yl)-2-(4-(3-(1-(5-ethylpyrimidin-2-yl)piperidin-4-yl)propoxy)-2-fluorophenyl)ethan-1-one]"
100 to 130%,≤ 100 nM,"CCc1cnc(N2CCC(CCCOc3ccc(CC(=O)N4CC(CNCCNC(=O)NC(CO)(CO)CO)C4)c(F)c3)CC2)nc1 [Example 65, 1-(1,3-dihydroxy-2-(hydroxymethyl)propan-2-yl)-3-(2-(((1-(2-(4-(3-(1-(5-ethylpyrimidin-2-yl)piperidin-4-yl)propoxy)-2-fluorophenyl)acetyl)azetidin-3-yl)methyl)amino)ethyl)urea]"
100 to 130%,≤ 100 nM,"CCc1cnc(N2CCC(CCCOc3cc(F)c(CC(=O)N4CC(CNCC(O)(CO)CO)C4)c(F)c3)CC2)nc1 [Example 67, 1-(3-(((2,3-dihydroxy-2-(hydroxymethyl)propyl)amino)methyl)azetidin-1-yl)-2-(4-(3-(1-(5-ethylpyrimidin-2-yl)piperidin-4-yl)propoxy)-2,6-difluorophenyl)ethan-1-one]"
≥ 130%,≤ 100 nM,"CCc1cnc(N2CCC(CCCOc3cc(F)c(CC(=O)N4CC(CNCCNC(=O)NC(CO)(CO)CO)C4)c(F)c3)CC2)nc1 [Example 68, 1-(1,3-dihydroxy-2-(hydroxymethyl)propan-2-yl)-3-(2-(((1-(2-(4-(3-(1-(5-ethylpyrimidin-2-yl)piperidin-4-yl)propoxy)-2,6-difluorophenyl)acetyl)azetidin-3-yl)methyl)amino)ethyl)urea]"
100 to 130%,≤ 100 nM,"CCCc1cnc(N2CCC(CCCOc3ccc(CC(=O)N4CC(CNCC(CO)CO)C4)c(F)c3)CC2)nc1 [Example 70, 2-(2-fluoro-4-(3-(1-(5-propylpyrimidin-2-yl)piperidin-4-yl)propoxy)phenyl)-1-(3-(((3-hydroxy-2-(hydroxymethyl)propyl)amino)methyl)azetidin-1-yl)ethan-1-one]"
100 to 130%,≤ 100 nM,"CCCc1cnc(N2CCC(CCCOc3ccc(CC(=O)N4CC(CNCC(O)(CO)CO)C4)c(F)c3)CC2)nc1 [Example 71, 1-(3-(((2,3-dihydroxy-2-(hydroxymethyl)propyl)amino)methyl)azetidin-1-yl)-2-(2-fluoro-4-(3-(1-(5-propylpyrimidin-2-yl)piperidin-4-yl)propoxy)phenyl)ethan-1-one]"
≥ 130%,≤ 100 nM,"CCCc1cnc(N2CCC(CCCOc3ccc(CC(=O)N4CC(CNC(CO)(CO)CO)C4)c(F)c3)CC2)nc1 [Example 72, 1-(3-(((1,3-dihydroxy-2-(hydroxymethyl)propan-2-yl)amino)methyl)azetidin-1-yl)-2-(2-fluoro-4-(3-(1-(5-propylpyrimidin-2-yl)piperidin-4-yl)propoxy)phenyl)ethan-1-one]"
100 to 130%,≤ 100 nM,"CCCc1cnc(N2CCC(CCCOc3cc(F)c(CC(=O)N4CC(CNCC(O)(CO)CO)C4)c(F)c3)CC2)nc1 [Example 75, 2-(2,6-difluoro-4-(3-(1-(5-propylpyrimidin-2-yl)piperidin-4-yl)propoxy)phenyl)-1-(3-(((2,3-dihydroxy-2-(hydroxymethyl)propyl)amino)methyl)azetidin-1-yl)ethan-1-one]"
≥ 130%,≤ 100 nM,"CCCc1cnc(N2CCC(CCCOc3cc(F)c(CC(=O)N4CC(CNC(CO)(CO)CO)C4)c(F)c3)CC2)nc1 [Example 76, 2-(2,6-difluoro-4-(3-(1-(5-propylpyrimidin-2-yl)piperidin-4-yl)propoxy)phenyl)-1-(3-(((1,3-dihydroxy-2-(hydroxymethyl)propan-2-yl)amino)methyl)azetidin-1-yl)ethan-1-one]"
